Experimental findings from paper PMC6880817, “Palladium-catalyzed synthesis and nucleotide pyrophosphatase inhibition of benzo[4,5]furo[3,2-b]indoles” (Beilstein Journal of Organic Chemistry, 2019) are described below.

Read-outs that look alike come from different tables or passages of the source. Some results are limits rather than exact numbers.

The target of one data set is T1, h-NPP-1 (Homo sapiens, UniProt P22413).
T1 construct: made in house; host or cells: COS-7 cells transiently transfected with a plasmid expressing human NPP-1; lysate/membrane fraction used as the enzyme
T1 sequence (P22413 1-925): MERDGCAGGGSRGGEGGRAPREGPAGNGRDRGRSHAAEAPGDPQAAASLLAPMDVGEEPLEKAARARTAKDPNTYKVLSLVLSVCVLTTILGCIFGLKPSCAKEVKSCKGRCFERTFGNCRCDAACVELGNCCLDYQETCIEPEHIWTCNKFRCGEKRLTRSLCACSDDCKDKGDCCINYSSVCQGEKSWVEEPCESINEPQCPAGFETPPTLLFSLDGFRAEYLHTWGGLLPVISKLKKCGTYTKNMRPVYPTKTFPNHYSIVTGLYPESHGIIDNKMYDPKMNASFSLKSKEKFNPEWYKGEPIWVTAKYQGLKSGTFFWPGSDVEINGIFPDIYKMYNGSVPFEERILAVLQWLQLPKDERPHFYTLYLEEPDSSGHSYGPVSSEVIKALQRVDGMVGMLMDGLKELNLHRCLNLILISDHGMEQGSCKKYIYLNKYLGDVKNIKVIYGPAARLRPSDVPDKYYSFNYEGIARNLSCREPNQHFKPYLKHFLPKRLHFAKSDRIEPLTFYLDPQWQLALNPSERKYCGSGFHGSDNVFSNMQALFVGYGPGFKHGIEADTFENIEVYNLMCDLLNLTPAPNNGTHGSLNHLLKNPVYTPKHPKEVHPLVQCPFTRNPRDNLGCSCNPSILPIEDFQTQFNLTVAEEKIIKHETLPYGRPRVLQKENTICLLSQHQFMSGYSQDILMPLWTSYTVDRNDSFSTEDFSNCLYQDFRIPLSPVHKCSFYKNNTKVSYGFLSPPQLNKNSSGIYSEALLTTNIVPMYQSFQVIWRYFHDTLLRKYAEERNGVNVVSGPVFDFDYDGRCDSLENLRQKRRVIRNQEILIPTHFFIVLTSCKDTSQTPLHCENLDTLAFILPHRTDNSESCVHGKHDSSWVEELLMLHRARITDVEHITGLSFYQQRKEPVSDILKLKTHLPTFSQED
In words: Nucleotide pyrophosphatase inhibition assay (colorimetric, pNP-TMP substrate), h-NPP-1. Type of data set: biochemical. The settings on record: for interaction with enzyme h-NPP-1: result in words. Here is the method: (§1) The inhibition potential of all the sulphonate derivatives against NPP1 and NPP3, was determined by considering an already reported colorimetric method with minor modifications. The reaction buffer was comprised of 50 mM Tris-hydrochloric acid, 5 mM magnesium chloride (MgCl2) and 0.1 mM zinc chloride (ZnCl2) with final pH 9.5. For initial screening of compounds, first enzyme and substrate parameters (concentration, temperature, time) were optimized. The reaction assay was performed at 100 µL well volume containing assay buffer, 10 µL of 1 mM test compound prepared in 10% DMSO, enzymes NPP1 (35 ng), NPP3 (94 ng) and assay buffer. The reaction mixture was incubated at 37 °C, 10 minutes for NPP1 and NPP3. Absorbance was taken at wavelength of 405 nm as pre-read by using a microplate reader (BioTek FLx800, Instruments, Inc. USA). After pre-read the artificial substrate p-nitrophenyl 5'-thymidine monophosphate (pNP-TMP), 400 µM for NPP1 and 600 µM in case of NPP3, was added followed by a second incubation at 37 °C, 15 minutes for NPP1 and NPP3. Absorbance was taken as after read. All the experiments were performed in triplicate.
(§2) Cell transfection with human NPPs. Analogous as previously described, COS-7 cells were transfected with plasmids expressing human NPPs ((NPP-1) or (NPP-3)) in 10 cm plates, by using Lipofectamine. The confluent cells were incubated for 5 h at 37 °C in DMEM/F-12 in the absence of fetal bovine serum and with 6 µg of plasmid DNA and 24 µL of lipofectamine reagent. Subsequently, the same volume of DMEM/F-12 containing 20% FBS was added to stop the transfection and cells were harvested 48–72 h later.
(§3) Preparation of membrane fractions. Analogous as previously described, the transfected cells were washed three times with Tris–saline buffer at 4 °C and then the cells were collected by scraping in the harvesting buffer (95 mM NaCl, 0.1 mM PMSF, and 45 mM Tris buffer, pH 7.5). Afterwards, the cells were washed twice by centrifugation at 300g for 5 min at 4 °C [4]. These cells were resuspended in the harvesting buffer containing 1 0 µg/mL aprotinin and then sonicated. Cellular and nuclear debris were discarde d by 10 min centrifugation (300 g at 4 °C). Glycerol (final concentration of 7.5%) was added to the resulting supernatant and all the samples were kept at −80 °C until used. Bra dford microplate assay was used for the estimation of protein concentration. Bovine serum albumin was used as a reference standard.
(§4) Protocol of nucleotide pyrophosphatase (h -NPP-1 & h-NPP-3) activity. Analogous as previously described , the conditions for the assay were optimized with the slight modifications in previously used spectrophotometric method. The reaction was carried out in the assay buffer which contained 5 mM MgCl 2, 0.1 mM ZnCl 2, 25% glycerol and 50 mM tris-hydrochloride (pH: 9.5). Initial screening was performed at a concentration of 0.1 mM of the tested compounds. The total volume of 100 µL contained 70 µL of the assay buffer, 10 µL of tested compound (0.1 mM with final DMSO 1% (v/v)) and 10 µL of h -NPP-1 (27 ng of protein from CO S cell lysate in assay buffer ) or 10 µL of h -NPP-3 (25 ng of protein from COS cell lysate in assay buffer ). The mixture was pre -incubated for 10 minutes at 37 °C and absorbance was measured at 405 nm as pre -read using microplate reader (BioTek FLx800, Instruments, Inc. USA). The reaction was then initiated by the addition of 10 µL of p-Nph-5-TMP substrate at a final concentration of 0.5 mM and the reaction mixture was incubated for 30 more min at 37 °C. The change in the absorbance was measured as after -read. The activity of each compound was compared with the reaction in absence of tested compounds/inhibitors.
(§5) 3 activity were further evaluated for determination of IC 50 values. For this purpose, their dose response curves were obtained by assaying each inhibitor concentration against both NPPs […]
(§6) using the above mentioned reaction conditions. […]

The target in the next data set is T2, h-NPP-3 (Homo sapiens, UniProt O14638).
T2 construct: made in house; host or cells: COS-7 cells transiently transfected with a plasmid expressing human NPP-3; lysate/membrane fraction used as the enzyme
T2 sequence (O14638 1-875): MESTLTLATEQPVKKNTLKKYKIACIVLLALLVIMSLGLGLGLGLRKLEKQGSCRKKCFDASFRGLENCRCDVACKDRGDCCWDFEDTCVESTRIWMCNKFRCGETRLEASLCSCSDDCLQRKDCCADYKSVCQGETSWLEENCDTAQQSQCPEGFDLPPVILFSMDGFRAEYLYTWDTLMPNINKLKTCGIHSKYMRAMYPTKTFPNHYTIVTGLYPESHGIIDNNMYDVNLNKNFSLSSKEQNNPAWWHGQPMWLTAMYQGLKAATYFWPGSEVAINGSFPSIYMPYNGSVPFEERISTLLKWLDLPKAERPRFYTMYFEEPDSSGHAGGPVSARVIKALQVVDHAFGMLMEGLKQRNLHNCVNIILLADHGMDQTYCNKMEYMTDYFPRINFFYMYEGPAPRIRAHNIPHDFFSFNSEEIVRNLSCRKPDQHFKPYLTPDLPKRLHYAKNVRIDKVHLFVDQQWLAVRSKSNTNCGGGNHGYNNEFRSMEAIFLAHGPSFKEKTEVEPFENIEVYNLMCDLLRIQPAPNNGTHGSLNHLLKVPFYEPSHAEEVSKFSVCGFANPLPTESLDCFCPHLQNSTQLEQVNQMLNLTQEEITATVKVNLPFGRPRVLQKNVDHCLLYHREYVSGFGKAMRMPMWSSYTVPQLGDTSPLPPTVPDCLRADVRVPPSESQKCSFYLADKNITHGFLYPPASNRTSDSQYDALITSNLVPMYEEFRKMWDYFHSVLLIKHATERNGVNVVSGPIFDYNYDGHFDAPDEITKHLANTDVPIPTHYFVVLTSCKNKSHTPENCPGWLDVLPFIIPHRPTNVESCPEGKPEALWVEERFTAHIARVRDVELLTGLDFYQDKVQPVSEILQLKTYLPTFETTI
Briefly: Nucleotide pyrophosphatase inhibition assay (colorimetric, pNP-TMP substrate), h-NPP-3. Type of data set: biochemical. The settings on record: for selectivity of inhibitory response towards h-NPP-3: h-NPP-3 versus h-NPP-1, result in words. Here is the method: as §1, §2, §3, §4, §5, §6

Where [1] appears, read: human recombinant NPP1, pNP-TMP substrate, pH 9.5, 37 °C, absorbance 405 nm, read-out: h-NPP-1 IC50 (µM) ± SEM.
Where [2] appears, read: human recombinant NPP3, pNP-TMP substrate, pH 9.5, 37 °C, absorbance 405 nm, read-out: h-NPP-3 IC50(µM) ± SEM.
[3] abbreviates: read-out: h-NPP-3 IC50 ± SEM (unit inferred).

A word on the melting point: it is the temperature, or range, at which the solid turns liquid. `COc1ccc(-n2c3ccccc3c3oc4ccccc4c32)cc1OC` [Compound 5f] came in with a melting point of 175 to 176 °C.
In general, IC50 refers to the concentration that inhibits the measured activity by half. Take `c1ccc(Cn2c3ccccc3c3oc4c5ccccc5n(Cc5ccccc5)c4c32)cc1` [Compound 6e]: the figures for the IC50 on h-NPP-1 (setting [1]) and on h-NPP-3 (setting [2]) were 0.53 ± 0.09 µM and 0.21 ± 0.04 µM, respectively.
`c1ccc(-n2c3ccccc3c3oc4ccccc4c32)cc1` [Compound 5a] returned a melting point of 137 to 139 °C. Besides, the IC50 at h-NPP-1 (setting [1]) is greater than 100 µM. Also, the “selectivity of inhibitory response towards h-NPP-3” value on h-NPP-3 was “selective inhibitory response towards nucleotide pyrophosphatase enzyme h-NPP-3”. Further, the IC50 on h-NPP-3 (setting [2]) turned out to be 1.38 ± 0.03 µM.
`c1ccc2c(c1)oc1c3ccccc3n(C3CCCCC3)c21` [Compound 5j] yielded a melting point of 163 to 164 °C. On h-NPP-1 (setting [1]), the IC50 worked out at 6.14 ± 0.09 µM. Besides, the IC50 at h-NPP-3 (setting [2]) was 2.39 ± 0.05 µM.
For the compound `Cc1ccc(-n2c3ccccc3c3oc4c5ccccc5n(-c5ccc(C)cc5)c4c32)cc1` [Compound 6a], the IC50 on h-NPP-1 (read-out: inhibitory value for h-NPP-1, IC50 ± SEM) was determined as 0.11 ± 0.06 µM; on h-NPP-3 (setting [2]), 0.61 ± 0.09 µM.
As to `COc1ccc(-n2c3ccccc3c3oc4ccccc4c32)cc1` [Compound 5e], the IC50 on h-NPP-1 (setting [1]) is greater than 100 µM; at h-NPP-3 (read-out: inhibitory value for h-NPP-3, IC50 ± SEM), 0.26 ± 0.01 µM. Besides, the “selectivity of inhibitory response towards h-NPP-3” value at h-NPP-3 is given as “selective inhibitory response towards nucleotide pyrophosphatase enzyme h-NPP-3”.
For the compound `FC(F)(F)c1cccc(-n2c3ccccc3c3oc4c5ccccc5n(-c5cccc(C(F)(F)F)c5)c4c32)c1` [Compound 6c], the IC50 at h-NPP-1 (setting [1]) was greater than 100 µM; at h-NPP-3 (setting [3]), 0.28 ± 0.04 µM. Moreover, at h-NPP-1, the “interaction with enzyme h-NPP-1” value was “no interaction with enzyme h-NPP-1”. Moreover, at h-NPP-3, the “selectivity of inhibitory response towards h-NPP-3” value was “highly selective towards h-NPP-3”.
`FC(F)(F)c1cccc(-n2c3ccccc3c3oc4ccccc4c32)c1` [Compound 5d] returned a melting point of 178 to 179 °C. Also, at h-NPP-1 (setting [1]), the IC50 was determined as 3.57 ± 0.03 µM. Also, at h-NPP-3 (setting [2]), the IC50 was found to be 0.49 ± 0.04 µM.
On to `Cc1ccc(-n2c3ccccc3c3oc4ccccc4c32)cc1` [Compound 5b], for which the melting point is 134 to 135 °C. At h-NPP-1 (setting [1]), the IC50 was determined as 2.84 ± 0.06 µM. For the same compound, the IC50 on h-NPP-3 (setting [2]) was found to be 0.59 ± 0.02 µM.
As to `c1ccc(Cn2c3ccccc3c3oc4ccccc4c32)cc1` [Compound 5h], the IC50 was found to be 2.62 ± 0.03 µM on h-NPP-1 (setting [1]) and 0.27 ± 0.06 µM on h-NPP-3 (setting [2]).
Consider `Fc1ccc(-n2c3ccccc3c3oc4c5ccccc5n(-c5ccc(F)cc5)c4c32)cc1` [Compound 6b], for which the IC50 at h-NPP-1 (setting [1]) is greater than 100 µM; on h-NPP-3 (setting [3]) it was 0.13 ± 0.06 µM. Further, the “interaction with enzyme h-NPP-1” value on h-NPP-1 is reported as “no interaction with enzyme h-NPP-1”. In addition, on h-NPP-3, the “selectivity of inhibitory response towards h-NPP-3” value was “highly selective towards h-NPP-3”.
On to `COc1ccc(-n2c3ccccc3c3oc4c5ccccc5n(-c5ccc(OC)cc5)c4c32)cc1` [Compound 6d], for which the results for the IC50 at h-NPP-1 (setting [1]) and on h-NPP-3 (setting [2]) were 1.38 ± 0.09 µM and 0.18 ± 0.01 µM, respectively.
The corresponding values for `CCCCCCCn1c2ccccc2c2oc3ccccc3c21` [Compound 5i] are 3.27 ± 0.08 µM and 2.55 ± 0.07 µM.
